Test results from US20140243302A1, “BRIDGED BICYCLIC COMPOUNDS FOR THE TREATMENT OF BACTERIAL INFECTIONS” (priority 2011, published 2014).
Converted amounts (≈) assume the structure as drawn. Structures can show the parent of a compound that is named as a salt.

Test system: Staphylococcus aureus Smith
Assay: MIC assay, modified agar dilution (CLSI), S. aureus Smith
Assay type: cell-based
Conditions: Staphylococcus aureus, agar dilution, 35° C., 16-20 hr; lowest concentration that completely inhibited growth; read-out: S_aureus_Smith_WT_MIC
Procedure, shortened: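 Strains were spotted at about 1×10^4 CFU onto compound-containing Mueller Hinton agar (two-fold series, 128-0.001 μg/mL), horse blood 5% added for pneumococcus and enterococcus. MIC read after 16-20 hr at 35 °C, following a modified CLSI agar dilution method.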

Row | SMILES | MIC
1 | O=C1COc2ccc(CNC34CCC(CCc5c(F)cnc6ccc(OCCCCO)nc56)(CC3)OC4)nc2N1 [Example 36, 6-((1-(2-(3-Fluoro-6-(4-hydroxybutoxy)-1,5-naphthyridin-4-yl)ethyl)-2-oxabicyclo[2.2.2]octan-4-ylamino)methyl)-2H-pyrido[3,2-b][1,4]oxazin-3(4H)-one] | 0.031 µg/mL (≈ 0.0562 µM)
2 | O=C1COc2ccc(CNC34CCC(CCc5c(F)cnc6ccc(OCCCCCO)nc56)(CC3)OC4)nc2N1 [Example 37, 6-((1-(2-(3-Fluoro-6-(5-hydroxypentyloxy)-1,5-naphthyridin-4-yl)ethyl)-2-oxabicyclo[2.2.2]octan-4-ylamino)methyl)-2H-pyrido[3,2-b][1,4]oxazin-3(4H)-one] | 0.063 µg/mL (≈ 0.111 µM)
3 | NCCCOc1ccc2ncc(F)c(CCC34CCC(NCc5ccc6c(n5)NC(=O)CO6)(CC3)CO4)c2n1 [Example 38, 6-((1-(2-(6-(3-Aminopropoxy)-3-fluoro-1,5-naphthyridin-4-yl)ethyl)-2-oxabicyclo[2.2.2]octan-4-ylamino)methyl)-2H-pyrido[3,2-b][1,4]oxazin-3(4H)-one] | 0.25 µg/mL (≈ 0.466 µM)
4 | NCCCCOc1ccc2ncc(F)c(CCC34CCC(NCc5ccc6c(n5)NC(=O)CO6)(CC3)CO4)c2n1 [Example 39, 6-((1-(2-(6-(4-Aminobutoxy)-3-fluoro-1,5-naphthyridin-4-yl)ethyl)-2-oxabicyclo[2.2.2]octan-4-ylamino)methyl)-2H-pyrido[3,2-b][1,4]oxazin-3(4H)-one] | 0.5 µg/mL (≈ 0.908 µM)
5 | NCCOc1ccc2ncc(F)c(CCC34CCC(NCc5ccc6c(n5)NC(=O)CO6)(CC3)CO4)c2n1 [Example 40, 6-((1-(2-(6-(2-Aminoethoxy)-3-fluoro-1,5-naphthyridin-4-yl)ethyl)-2-oxabicyclo[2.2.2]octan-4-ylamino)methyl)-2H-pyrido[3,2-b][1,4]oxazin-3(4H)-one] | 0.25 µg/mL (≈ 0.478 µM)
6 | NCCCCCOc1ccc2ncc(F)c(CCC34CCC(NCc5ccc6c(n5)NC(=O)CO6)(CC3)CO4)c2n1 [Example 41, 6-((1-(2-(6-(5-Aminopentyloxy)-3-fluoro-1,5-naphthyridin-4-yl)ethyl)-2-oxabicyclo[2.2.2]octan-4-ylamino)methyl)-2H-pyrido[3,2-b][1,4]oxazin-3(4H)-one] | 0.5 µg/mL (≈ 0.885 µM)
7 | O=C1COc2ccc(CNC34CCC(CCc5c(F)cnc6ccc(OCC7(CO)CC7)nc56)(CC3)OC4)nc2N1 [Example 42, 6-((1-(2-(3-Fluoro-6-((1-(hydroxymethyl)cyclopropyl)methoxy)-1,5-naphthyridin-4-yl)ethyl)-2-oxabicyclo[2.2.2]octan-4-ylamino)methyl)-2H-pyrido[3,2-b][1,4]oxazin-3(4H)-one] | 0.063 µg/mL (≈ 0.112 µM)
8 | NCC1(COc2ccc3ncc(F)c(CCC45CCC(NCc6ccc7c(n6)NC(=O)CO7)(CC4)CO5)c3n2)CC1 [Example 43, 6-((1-(2-(6-((1-(Aminomethyl)cyclopropyl)methoxy)-3-fluoro-1,5-naphthyridin-4-yl)ethyl)-2-oxabicyclo[2.2.2]octan-4-ylamino)methyl)-2H-pyrido[3,2-b][1,4]oxazin-3(4H)-one] | 1 µg/mL (≈ 1.78 µM)
9 | COc1ccc2ncc(C#N)c(CCC34CCC(NCc5ccc6c(n5)NC(=O)CO6)(CC3)CO4)c2n1 [Example 44, 6-Methoxy-4-(2-(4-((3-oxo-3,4-dihydro-2H-pyrido[3,2-b][1,4]oxazin-6-yl)methylamino)-2-oxabicyclo[2.2.2]octan-1-yl)ethyl)-1,5-naphthyridine-3-carbonitrile] | 0.016 µg/mL (≈ 0.032 µM)
10 | COc1ccc2ncc(C#N)c(CCC34CCC(NCc5cc6c(cn5)OCCO6)(CC3)CO4)c2n1 [Example 45, 4-(2-(4-((2,3-Dihydro-[1,4]dioxino[2,3-c]pyridin-7-yl)methylamino)-2-oxabicyclo[2.2.2]octan-1-yl)ethyl)-6-methoxy-1,5-naphthyridine-3-carbonitrile Hydrochloride] | 0.031 µg/mL
11 | COc1ccc2ncc(C#N)c(CCC34CCC(NCc5cc6ccccc6n(C)c5=O)(CC3)CO4)c2n1.Cl [Example 46, 6-Methoxy-4-(2-(4-((1-methyl-2-oxo-1,2-dihydroquinolin-3-yl)methylamino)-2-oxabicyclo[2.2.2]octan-1-yl)ethyl)-1,5-naphthyridine-3-carbonitrile Hydrochloride] | 2 µg/mL
12 | CON=C1COc2ccc(CNC34CCC(CCc5c(F)cnc6ccc(OC)nc56)(CC3)OC4)nc2N1 [Example 47, 6-((1-(2-(3-Fluoro-6-methoxy-1,5-naphthyridin-4-yl)ethyl)-2-oxabicyclo[2.2.2]octan-4-ylamino)methyl)-2H-pyrido[3,2-b][1,4]oxazin-3(4H)-one O-Methyl Oxime] | 2 µg/mL (≈ 3.83 µM)
13 | COc1ccc2ncc(F)c(CCC34CCC(NCc5ccc6c(n5)NC(=NO)CO6)(CC3)CO4)c2n1 [Example 48, 6-((1-(2-(3-Fluoro-6-methoxy-1,5-naphthyridin-4-yl)ethyl)-2-oxabicyclo[2.2.2]octan-4-ylamino)methyl)-2H-pyrido[3,2-b][1,4]oxazin-3(4H)-one Oxime] | 2 µg/mL (≈ 3.93 µM)
14 | COc1ccc2c(n1)c(CCC13CCC(NCc4ccc5c(n4)NC(=O)CO5)(CC1)CO3)cc(=O)n2C [Example 49, 6-(((1-(2-(6-Methoxy-1-methyl-2-oxo-1,2-dihydro-1,5-naphthyridin-4-yl)ethyl)-2-oxabicyclo[2.2.2]octan-4-yl)amino)methyl)-2H-pyrido[3,2-b][1,4]oxazin-3(4H)-one] | 1 µg/mL (≈ 1.98 µM)
15 | COc1ccc2ncc(OC)c(CCC34CCC(NCc5ccc6c(n5)NC(=O)CO6)(CC3)CO4)c2n1 [Example 50, 6-[({1-[2-(3,6-Dimethoxy-1,5-naphthyridin-4-yl)ethyl]-2-oxabicyclo[2.2.2]oct-4-yl}amino)methyl]-2H-pyrido[3,2-b][1,4]oxazin-3(4H)-one] | 0.125 µg/mL (≈ 0.247 µM)
16 | COc1ccc2ncc(Cl)c(CCC34CCC(NCc5ccc6c(c5)NC(=O)CO6)(CC3)CC4)c2n1 [Example 56, 6-((4-(2-(3-Chloro-6-methoxy-1,5-naphthyridin-4-yl)ethyl)bicyclo[2.2.2]octan-1-ylamino)methyl)-2H-benzo[b][1,4]oxazin-3(4H)-one] | 0.031 µg/mL (≈ 0.0611 µM)
17 | COc1ccc2nc(CNC34CCC(CCc5c(Cl)cnc6ccc(OC)nc56)(CC3)CC4)ccc2c1 [Example 57, 4-(2-(3-Chloro-6-methoxy-1,5-naphthyridin-4-yl)ethyl)-N-((6-methoxyquinolin-2-yl)methyl)bicyclo[2.2.2]octan-1-amine] | 4 µg/mL (≈ 7.74 µM)
18 | COc1ccc2ncc(Cl)c(CCC34CCC(NCc5ccc6cccnc6n5)(CC3)CC4)c2n1 [Example 58, N-((1,8-Naphthyridin-2-yl)methyl)-4-(2-(3-chloro-6-methoxy-1,5-naphthyridin-4-yl)ethyl)bicyclo[2.2.2]octan-1-amine] | 0.125 µg/mL (≈ 0.256 µM)
19 | COc1ccc2ncc(F)c(CCC34CCC(NCc5ccc(C)c(F)c5)(CC3)CO4)c2n1 [Example 59, N-(3-Fluoro-4-methylbenzyl)-1-(2-(3-fluoro-6-methoxy-1,5-naphthyridin-4-yl)ethyl)-2-oxabicyclo[2.2.2]octan-4-amine] | 0.016 µg/mL (≈ 0.0353 µM)
20 | COc1ccc2ncc(F)c(CCC34CCC(NCc5cccc(C#N)n5)(CC3)CO4)c2n1 [Example 60, 6-(((1-(2-(3-Fluoro-6-methoxy-1,5-naphthyridin-4-yl)ethyl)-2-oxabicyclo[2.2.2]octan-4-yl)amino)methyl)picolinonitrile] | 8 µg/mL (≈ 17.9 µM)
